Measured values as given in patent US20250074891A1 (Anaxis Pharma Pty Ltd., priority 2021, published 2025).

Key:
Settings in all cases: Table 35
[1] = target: RIP3 (Homo sapiens (Human), UniProt Q9Y572); assay: KINOMEscan binding assay, RIP3
Description: (§1) Kinase assays. For most assays, kinase-tagged T7 phage strains were grown in parallel in 24-well blocks in an E. coli host derived from the BL21 strain. E. coli were grown to log-phase and infected with T7 phage from a frozen stock (multiplicity of infection=0.4) and incubated with shaking at 32° C. until lysis (90-150 minutes).
(§2) The Hill Slope was set to −1.

[2] = target: RIP1 (Homo sapiens (Human), UniProt Q13546); assay: KINOMEscan binding assay, RIP1
Chain of RIP1 (Q13546 whole entry): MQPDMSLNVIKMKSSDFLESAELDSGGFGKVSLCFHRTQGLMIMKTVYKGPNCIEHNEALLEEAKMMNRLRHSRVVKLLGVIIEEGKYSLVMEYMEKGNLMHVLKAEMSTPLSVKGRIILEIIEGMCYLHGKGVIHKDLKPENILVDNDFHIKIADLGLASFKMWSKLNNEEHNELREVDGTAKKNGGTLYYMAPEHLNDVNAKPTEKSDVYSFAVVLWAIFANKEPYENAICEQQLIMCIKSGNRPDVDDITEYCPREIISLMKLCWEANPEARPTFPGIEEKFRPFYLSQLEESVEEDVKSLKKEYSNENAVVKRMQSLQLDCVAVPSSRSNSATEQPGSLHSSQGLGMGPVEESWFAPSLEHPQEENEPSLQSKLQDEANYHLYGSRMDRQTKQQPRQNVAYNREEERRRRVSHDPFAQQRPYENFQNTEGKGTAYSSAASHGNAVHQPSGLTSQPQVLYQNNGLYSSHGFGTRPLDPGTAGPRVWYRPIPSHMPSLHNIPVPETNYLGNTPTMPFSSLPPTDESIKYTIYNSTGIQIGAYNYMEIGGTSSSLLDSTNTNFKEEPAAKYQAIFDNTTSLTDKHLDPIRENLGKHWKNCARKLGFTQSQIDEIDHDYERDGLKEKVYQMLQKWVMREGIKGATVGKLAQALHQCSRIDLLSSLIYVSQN

[3] = target: MLKL (full length) (Homo sapiens (Human), UniProt Q8NB16); assay: KINOMEscan binding assay, MLKL (full length)
Chain of MLKL (full length) (Q8NB16 whole entry): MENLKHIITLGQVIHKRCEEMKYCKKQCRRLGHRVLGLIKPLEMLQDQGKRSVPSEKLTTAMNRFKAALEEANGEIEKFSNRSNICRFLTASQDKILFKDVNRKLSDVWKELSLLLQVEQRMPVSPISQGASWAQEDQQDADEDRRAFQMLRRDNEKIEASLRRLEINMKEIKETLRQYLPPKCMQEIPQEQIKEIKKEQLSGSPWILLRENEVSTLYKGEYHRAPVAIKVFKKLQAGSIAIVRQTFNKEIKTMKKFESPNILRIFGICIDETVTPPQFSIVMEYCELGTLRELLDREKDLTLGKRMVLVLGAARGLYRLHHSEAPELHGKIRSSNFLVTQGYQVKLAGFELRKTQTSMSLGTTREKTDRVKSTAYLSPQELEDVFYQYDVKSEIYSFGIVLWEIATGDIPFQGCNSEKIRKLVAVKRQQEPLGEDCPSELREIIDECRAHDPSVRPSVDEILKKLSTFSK
Description: as §1, §2

Chain of RIP3 (Q9Y572 whole entry): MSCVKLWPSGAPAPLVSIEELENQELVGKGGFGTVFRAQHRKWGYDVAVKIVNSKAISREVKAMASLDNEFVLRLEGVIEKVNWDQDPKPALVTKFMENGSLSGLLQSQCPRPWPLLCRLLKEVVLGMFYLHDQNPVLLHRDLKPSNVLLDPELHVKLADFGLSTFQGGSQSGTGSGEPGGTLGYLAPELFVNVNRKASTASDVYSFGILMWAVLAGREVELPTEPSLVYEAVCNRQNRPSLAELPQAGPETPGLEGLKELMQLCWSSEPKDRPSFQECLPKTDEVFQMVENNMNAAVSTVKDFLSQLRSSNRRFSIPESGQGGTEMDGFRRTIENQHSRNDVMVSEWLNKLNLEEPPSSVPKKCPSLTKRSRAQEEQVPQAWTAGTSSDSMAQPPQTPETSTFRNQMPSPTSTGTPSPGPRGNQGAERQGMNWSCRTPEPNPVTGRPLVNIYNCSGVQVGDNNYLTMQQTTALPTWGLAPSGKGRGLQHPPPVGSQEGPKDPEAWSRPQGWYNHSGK

Row | SMILES | Kd [1] | Kd [2] | Kd [3]
1 | Cc1cc(Nc2[nH]nc(-c3ccc(NS(=O)(=O)C(F)F)c(O[C@@H](C)c4ccc(F)cc4)c3)c2C(N)=O)on1 [Compound 302, (S)-3-(4-((difluoromethyl)sulfonamido)-3-(1-(4-fluorophenyl)ethoxy)phenyl)-5-((3-methylisoxazol-5-yl)amino)-1H-pyrazole-4-carboxamide] | > 30 µM | > 30 µM | < 0.01 µM
2 | CCS(=O)(=O)Nc1ccc(-c2n[nH]c(Nc3ccccn3)c2C(N)=O)cc1OCc1cccnc1 [Compound 31, 3-(4-(ethylsulfon-amido)-3-(pyridin-3-ylmethoxy)phenyl)-5-(pyridin-2-ylamino)-1H-pyrazole-4-carboxamide] | > 30 µM | > 30 µM | < 0.01 µM
3 | Cc1cnc(Nc2[nH]nc(-c3ccc(NS(=O)(=O)C(F)F)c(O[C@@H](C)c4ccc(F)cc4)c3)c2C(N)=O)cn1 [Compound 245, 3-[4-(difluoro-methanesulfon-amido)-3-[(1S)-1-(4-fluorophenyl)ethoxy]phenyl]-5-[(5-methylpyrazin-2-yl)amino]-1H-pyrazole-4-carboxamide] | > 30 µM | > 30 µM | < 0.01 µM
4 | C[C@H](Oc1cc(-c2n[nH]c(Nc3cc(C4CCOC4)on3)c2C(N)=O)ccc1NS(=O)(=O)C(F)F)c1ccc(F)cc1 (stereo partly drawn) [Compound 305, 3-(4-((difluoromethyl)sulfonamido)-3-((S)-1-(4-fluorophenyl)ethoxy)phenyl)-5-((5-(tetrahydrofuran-3-yl)isoxazol-3-yl)amino)-1H-pyrazole-4-carboxamide] | > 30 µM | > 30 µM | < 0.01 µM
5 | CCS(=O)(=O)Nc1ccc(-c2n[nH]c(Nc3cnccn3)c2C(N)=O)cc1OCc1ccc(F)cc1C [Compound 171, 3-(4-(ethylsulfonamido)-3-((4-fluoro-2-methylbenzyl)oxy)phenyl)-5-(pyrazin-2-ylamino)-1H-pyrazole-4-carboxamide] | > 30 µM | > 30 µM | < 0.01 µM
6 | C[C@H](Oc1cc(-c2n[nH]c(Nc3cnc(C(C)(C)C)cn3)c2C(N)=O)ccc1NS(=O)(=O)C(F)F)c1ccc(F)cc1 [Compound 312, (S)-5-((5-(tert-butyl)pyrazin-2-yl)amino)-3-(4-((difluoromethyl)sulfonamido)-3-(1-(4-fluorophenyl)ethoxy)phenyl)-1H-pyrazole-4-carboxamide] | > 30 µM | > 30 µM | < 0.01 µM
7 | NC(=O)c1cccc(Nc2[nH]nc(-c3ccc(NS(=O)(=O)C(F)F)cc3)c2C(N)=O)n1 [Compound 257, 6-({4-carbamoyl-3-[4-(difluoromethanesulfonamido)phenyl]-1H-pyrazol-5-yl}amino)pyridine-2-carboxamide] | > 30 µM | > 30 µM | < 0.01 µM
8 | COc1ccc(Nc2[nH]nc(-c3ccc(NS(=O)(=O)CC(F)(F)F)c(OCc4ccc(F)cc4)c3)c2C(N)=O)cn1 [Compound 159, 3-(3-((4-fluorobenzyl)oxy)-4-((2,2,2-trifluoroethyl)sulfonamido)phenyl)-5-((6-methoxypyridin-3-yl)amino)-1H-pyrazole-4-carboxamide] | > 30 µM | > 30 µM | < 0.01 µM
9 | NC(=O)c1c(-c2ccc(NS(=O)(=O)C(F)F)c(OCc3ncco3)c2)n[nH]c1Nc1cnccn1 [Compound 313, 3-(4-((difluoromethyl)sulfonamido)-3-(oxazol-2-ylmethoxy)phenyl)-5-(pyrazin-2-ylamino)-1H-pyrazole-4-carboxamide] | > 30 µM | > 30 µM | < 0.01 µM
10 | CC(Oc1cc(-c2n[nH]c(Nc3cnccn3)c2C(N)=O)ccc1NS(=O)(=O)C(F)F)c1ncco1 (racemic) [Compound 293, 3-(4-((difluoro-methyl)sulfon-amido)-3-(1-(oxazol-2-yl)ethoxy)phenyl)-5-(pyrazin-2-ylamino)-1H-pyrazole-4-carboxamide] | > 30 µM | > 30 µM | < 0.01 µM

Next, values leading:

Row | Kd [1] | Kd [2] | Kd [3] | SMILES
11 | > 30 µM | > 30 µM | < 0.01 µM | NC(=O)c1c(-c2ccc(NS(=O)(=O)CC(F)(F)F)c(OCc3ccccn3)c2)n[nH]c1Nc1cnccn1 [Compound 227, 5-[(pyrazin-2-yl)amino]-3-{3-[(pyridin-2-yl)methoxy]-4-(2,2,2-trifluoroethanesulfonamido)phenyl}-1H-pyrazole-4-carboxamide]
12 | > 30 µM | > 30 µM | < 0.01 µM | CCS(=O)(=O)Nc1ccc(-c2n[nH]c(Nc3cnn(C)c3)c2C(N)=O)cc1 [Compound 100, 3-(4-(ethylsulfonamido)phenyl)-5-((1-methyl-1H-pyrazol-4-yl)amino)-1H-pyrazole-4-carboxamide]
13 | > 30 µM | > 30 µM | < 0.01 µM | C[C@H](Oc1cc(-c2n[nH]c(Nc3cc4n(n3)CCCN(C)C4)c2C(N)=O)ccc1NS(=O)(=O)C(F)F)c1ccc(F)cc1 [Compound 318, (S)-3-(4-((difluoromethyl)sulfonamido)-3-(1-(4-fluorophenyl)ethoxy)phenyl)-5-((5-methyl-5,6,7,8-tetrahydro-4H-pyrazolo[1,5-a][1,4]diazepin-2-yl)amino)-1H-pyrazole-4-carboxamide]
14 | > 30 µM | > 30 µM | < 0.01 µM | CCS(=O)(=O)Nc1ccc(-c2n[nH]c(Nc3cnccn3)c2C(N)=O)cc1OCCc1ccccc1F [Compound 211, 3-(4-(ethylsulfonamido)-3-(2-fluorophenethoxy)phenyl)-5-(pyrazin-2-ylamino)-1H-pyrazole-4-carboxamide]
15 | > 30 µM | > 30 µM | < 0.01 µM | NC(=O)c1c(-c2ccc(NS(=O)(=O)CC(F)(F)F)c(OCc3ccc(F)c(F)c3)c2)n[nH]c1Nc1cnccn1 [Compound 175, 3-(3-((3,4-difluorobenzyl)oxy)-4-((2,2,2-trifluoroethyl)sulfonamido)phenyl)-5-(pyrazin-2-ylamino)-1H-pyrazole-4-carboxamide]
16 | > 30 µM | > 30 µM | < 0.01 µM | COc1cnc(Nc2[nH]nc(-c3ccc(NS(=O)(=O)CC(F)(F)F)c(OCc4ccc(F)cc4)c3)c2C(N)=O)cn1 [Compound 143, 3-(3-((4-fluorobenzyl)oxy)-4-((2,2,2-trifluoroethyl)sulfonamido)phenyl)-5-((5-methoxypyrazin-2-yl)amino)-1H-pyrazole-4-carboxamide]
17 | > 30 µM | > 30 µM | < 0.01 µM | CCS(=O)(=O)Nc1ccc(-c2n[nH]c(Nc3cccc(C(F)(F)F)n3)c2C(N)=O)cc1 [Compound 126, 3-(4-(ethylsulfonamido)phenyl)-5-((6-(trifluoromethyl)pyridin-2-yl)amino)-1H-pyrazole-4-carboxamide]
18 | > 30 µM | > 30 µM | < 0.01 µM | Cc1nc(Nc2[nH]nc(-c3ccc(NS(=O)(=O)C(F)F)c(O[C@@H](C)c4ccc(F)cc4)c3)c2C(N)=O)sc1C [Compound 284, (S)-3-(4-((difluoromethyl)sulfonamido)-3-(1-(4-fluorophenyl)ethoxy)phenyl)-5-((4,5-dimethylthiazol-2-yl)amino)-1H-pyrazole-4-carboxamide]
19 | > 30 µM | > 30 µM | < 0.01 µM | CCS(=O)(=O)Nc1ccc(-c2n[nH]c(Nc3ccnc(OCC(F)F)c3)c2C(N)=O)cc1 [Compound 106, 5-((2-(2,2-difluoroethoxy)pyridin-4-yl)amino)-3-(4-(ethylsulfonamido)phenyl)-1H-pyrazole-4-carboxamide]
20 | > 30 µM | > 30 µM | < 0.01 µM | CCS(=O)(=O)Nc1ccc(-c2n[nH]c(Nc3cnc(C(C)C)cn3)c2C(N)=O)cc1OCc1ccc(F)cc1 [Compound 34, 3-(4-(ethylsulfonamido)-3-((4-fluorobenzyl)oxy)phenyl) 5-((5-isopropylpyrazin-2-yl)amino)-1H-pyrazole-4-carboxamide]
21 | > 30 µM | > 30 µM | < 0.01 µM | NC(=O)c1c(-c2ccc(NS(=O)(=O)CC(F)(F)F)c(OCc3ccc(F)cc3)c2)n[nH]c1Nc1cnccn1 [Compound 170, 3-(3-((4-fluorobenzyl)oxy)-4-((2,2,2-trifluoroethyl)sulfonamido)phenyl)-5-(pyrazin-2-ylamino)-1H-pyrazole-4-carboxamide]
22 | > 30 µM | > 30 µM | < 0.01 µM | NC(=O)c1c(-c2ccc(NS(=O)(=O)C(F)F)c(OCc3ccc(F)cc3)c2)n[nH]c1Nc1ccc(C(F)(F)F)nc1 [Compound 188, 3-(4-((difluoromethyl)sulfonamido)-3-((4-fluorobenzyl)oxy)phenyl)-5-((6-(trifluoromethyl)pyridine-3-yl)amino)-1H-pyrazole-4-carboxamide]
